Where two headings read alike, the source gives them in different places.
How the values were obtained:
[1] = target: T1, human muscarinic M3 receptor (Homo sapiens, UniProt P20309); experiment: Human muscarinic M3 receptor binding assay ([3H]-NMS, CHO-K1 cell membranes)
T1 construct: purchased Perkin Elmer; host or cells: CHO-K1 cells (membranes)
Experimental: Test 2: Human Muscarinic M1, M2, M3, M4 and M5 Receptors Binding Assays
The study of binding to human muscarinic M1, M2, M3, M4 and M5 receptors was performed using commercial membranes (Perkin Elmer) prepared from CHO-K1 cells. Radioligand binding experiments were conducted in 96 polypropylene well plates in a total volume of 200 μl. All reagents were dissolved in assay binding buffer (PBS with calcium and magnesium, SIGMA), except compounds that were dissolved in DMSO 100%. Non-specific binding (NSB) was measured in the presence of 1 μM atropine. [3H]-NMS was used as the radioligand at a concentration of 1 nM for M2, M3 and M5 and 0.3 nM for M1 and M4. [3H]-NMS and antagonists were incubated with membranes that express human muscarinic receptors M1, M2, M3, M4 and M5 at concentrations of 8.1, 10, 4.9, 4.5 and 4.9 μg/well, respectively.
After an incubation period of two hours with gentle shaking, 150 μl of the reaction mix were transferred to 96 GF/C filter plates (Millipore), previously treated with wash buffer (Tris 50 mM; NaCl 100 mM; pH:7.4), containing 0.05% PEI (Sigma) during one hour. Bound and free [3H]-NMS were separated by rapid vacuum filtration in a manifold from Millipore and washed four times with ice cold wash buffer. After drying 30 min, 30 μl of OPTIPHASE Supermix were added to each well and radioactivity quantified using a Microbeta microplate scintillation counter.
The affinity of each test compound to the receptors was determined by using ten different concentrations ran in duplicate. IC50s were calculated using Activity Base software from IDBS and the four parameters-log equation.

[2] = target: T2, human adrenergic beta2 receptor (Homo sapiens, UniProt P07550); experiment: Human adrenergic β2 receptor binding assay (3H-CGP12177, Sf9 cell membranes)
T2 construct: purchased Perkin Elmer; host or cells: Sf9 cells (overexpressed; membranes)
Experimental: Typically said beta2-adrenergic binding assay comprises: • a) providing a membrane suspension comprising Sf9 cells in an assay buffer • b) incubating with 3H-CGP12177 in plates previously treated with assay buffer containing a coating agent • c) measuring binding of test compound in the presence of propanolol • d) maintaining incubation • e) terminating the binding reactions • f) determining the affinity of the test compound for the receptor by repeating steps a) to e) using multiple different test compound concentrations. • g) calculating an IC50 using the four parameters-log equation.
Test 1: Human Adrenergic β1 and β2 Receptor Binding Assays
The study of binding to human adrenergic beta1 and beta2 receptors was performed using commercial membranes prepared from Sf9 cells where they are overexpressed (Perkin Elmer). The membrane suspensions (16 μg/well for beta1 and 5 μg/well for beta2) in assay buffer (75 mM Tris/HCl with 12.5 mM MgCl2 and 2 mM EDTA pH=7.4) were incubated with 0.14 or 0.6 nM of 3H-CGP12177 (Amersham) for beta 1 and beta 2 receptors respectively in a final volume of 250 μl, in GFC Multiscreen 96 well plates (Millipore) previously treated with assay buffer containing 0.3% PEI (Sigma). Non specific binding was measured in the presence of 1 μM propanolol. Incubation was maintained for 60 minutes at room temperature and with gentle shaking. The binding reactions were terminated by filtration and washing with 2.5 volumes of Tris/HCl 50 mM pH=7.4. The affinity of each test compound to the receptor was determined by using ten different concentrations ran in duplicate. IC50s were calculated using Activity Base software from IDBS and the four parameters-log equation.

[3] = 1 nM [3H]-NMS, CHO-K1 membranes 4.9 μg/well, two hours incubation, read-out: Binding, IC50, nM M3
[4] = 0.6 nM 3H-CGP12177, Sf9 membranes 5 μg/well, 60 min room temperature, read-out: Binding, IC50, nM β2

T1 sequence (P20309 whole entry): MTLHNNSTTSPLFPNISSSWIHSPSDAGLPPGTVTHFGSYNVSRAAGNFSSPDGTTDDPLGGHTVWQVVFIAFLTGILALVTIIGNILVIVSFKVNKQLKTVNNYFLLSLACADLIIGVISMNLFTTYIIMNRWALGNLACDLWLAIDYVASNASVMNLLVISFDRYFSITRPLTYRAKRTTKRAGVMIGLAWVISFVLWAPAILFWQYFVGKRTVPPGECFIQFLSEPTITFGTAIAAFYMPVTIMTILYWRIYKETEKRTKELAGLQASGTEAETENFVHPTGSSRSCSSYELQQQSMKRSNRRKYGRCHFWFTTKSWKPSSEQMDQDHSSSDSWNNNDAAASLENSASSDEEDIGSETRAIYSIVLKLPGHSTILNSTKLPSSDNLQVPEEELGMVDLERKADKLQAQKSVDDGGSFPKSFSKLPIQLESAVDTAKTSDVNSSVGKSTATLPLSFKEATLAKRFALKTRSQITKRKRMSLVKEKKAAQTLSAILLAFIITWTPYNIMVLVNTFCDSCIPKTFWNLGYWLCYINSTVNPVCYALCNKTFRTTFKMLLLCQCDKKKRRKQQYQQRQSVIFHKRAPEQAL

Row | Molecule | IC50 [1, 3] | IC50 [2, 4] | IC50 [1] | IC50 [2]
1 | 1-azabicyclo[2.2.2]oct-4-yl(4-{3-[{[2-chloro-4-({[(2R)-2-hydroxy-2-(8-hydroxy-2-oxo-1,2-dihydroquinolin-5-yl)ethyl]amino}methyl)-5-methoxyphenoxy]acetyl}(methyl)amino]propyl}biphenyl-2-yl)carbamate dihydrofluoride [Example 66] | 0.99 nM | 9.6 nM |  | 
2 | 1-azabicyclo[2.2.2]oct-4-yl[4-(4-{[2-chloro-4-({[(2R)-2-hydroxy-2-(8-hydroxy-2-oxo-1,2-dihydroquinolin-5-yl)ethyl]amino}methyl)-5-methoxybenzoyl]amino}butyl)biphenyl-2-yl]carbamate dihydrofluoride [Example 67] | 0.41 nM | 8.2 nM |  | 
3 | 1-azabicyclo[2.2.2]oct-4-yl[4-(4-{[6-({[(2R)-2-hydroxy-2-(8-hydroxy-2-oxo-1,2-dihydroquinolin-5-yl)ethyl]amino}methyl)pyridin-3-yl]amino}-4-oxobutyl) biphenyl-2-yl]carbamate dihydrofluoride [Example 68] | 1.7 nM | 23 nM |  | 
4 | N[C@H]1CC[C@H](OC(=O)Nc2cc(CCCCn3nnc4cc(CNC[C@H](O)c5ccc(O)c6[nH]c(=O)ccc56)ccc43)ccc2-c2ccccc2)CC1 (relative stereo) [Example 35, trans-4-aminocyclohexyl(4-{4-[5-({[(2R)-2-hydroxy-2-(8-hydroxy-2-oxo-1,2-dihydroquinolin-5-yl)ethyl]amino}methyl)-1H-1,2,3-benzotriazol-1-yl]butyl}biphenyl-2-yl)carbamate] | 0.33 nM | 16 nM |  | 
5 | COc1cc(C(=O)NCCCc2ccc(-c3ccccc3)c(NC(=O)O[C@H]3CC[C@H](N)CC3)c2)c(Cl)cc1CNC[C@H](O)c1ccc(O)c2[nH]c(=O)ccc12 (relative stereo) [Example 52, trans-4-aminocyclohexyl[4-(3-{[2-chloro-4-({[(2R)-2-hydroxy-2-(8-hydroxy-2-oxo-1,2-dihydroquinolin-5-yl)ethyl]amino}methyl)-5-methoxybenzoyl]amino}propyl)biphenyl-2-yl]carbamate] | 1.5 nM | 8.2 nM |  | 
6 | N[C@H]1CC[C@H](OC(=O)Nc2cc(CCCC(=O)N[C@H]3CC[C@H](CNC[C@H](O)c4ccc(O)c5[nH]c(=O)ccc45)CC3)ccc2-c2ccccc2)CC1 (relative stereo) [Example 58, trans-4-aminocyclohexyl[4-(4-{[trans-4-({[(2R)-2-hydroxy-2-(8-hydroxy-2-oxo-1,2-dihydroquinolin-5-yl)ethyl]amino}methyl)cyclohexyl]amino}-4-oxobutyl)biphenyl-2-yl]carbamate] | 1.4 nM | 8.4 nM |  | 
7 | O=C(Nc1cc(CCCCOc2ccc(CNC[C@H](O)c3ccc(O)c4[nH]c(=O)ccc34)cc2)ccc1-c1ccccc1)O[C@H]1CN2CCC1CC2 [Example 10, (3R)-1-azabicyclo[2.2.2]oct-3-yl(4-{4-[4-({[(2R)-2-hydroxy-2-(8-hydroxy-2-oxo-1,2-dihydroquinolin-5-yl)ethyl]amino}methyl)phenoxy]butyl}biphenyl-2-yl)carbamate] |  |  | 0.57 nM | 69 nM
8 | O=C(Nc1cc(CCCCn2nc3ccc(CNC[C@H](O)c4ccc(O)c5[nH]c(=O)ccc45)cc3n2)ccc1-c1ccccc1)O[C@H]1CN2CCC1CC2 [Example 19, (3R)-1-azabicyclo[2.2.2]oct-3-yl(4-{4-[5-({[(2R)-2-hydroxy-2-(8-hydroxy-2-oxo-1,2-dihydroquinolin-5-yl)ethyl]amino}methyl)-2H-1,2,3-benzotriazol-2-yl]butyl}biphenyl-2-yl)carbamate] |  |  | 0.19 nM | 6.6 nM
9 | O=C(Nc1ccc(CCCCn2c(=O)oc3cc(CNC[C@H](O)c4ccc(O)c5[nH]c(=O)ccc45)ccc32)cc1-c1ccccc1)O[C@H]1CN2CCC1CC2 [Example 22, (3R)-1-azabicyclo[2.2.2]oct-3-yl(5-{4-[6-({[(2R)-2-hydroxy-2-(8-hydroxy-2-oxo-1,2-dihydroquinolin-5-yl)ethyl]amino}methyl)-2-oxo-1,3-benzoxazol-3(2H)-yl]butyl}biphenyl-2-yl)carbamate] |  |  | 1 nM | 8.5 nM

Reference: patent publication US9518050B2, “Cyclohexyl and quinuclidinyl carbamate derivatives having β2 adrenergic agonist and M3 muscarinic antagonist activity” (priority 2012, dated 2016)
